Results as given in ChEMBL document CHEMBL4342441, “Small molecules targeting HIF-1α pathway for cancer therapy in recent years” (Bioorg Med Chem, 2020).
pIC50: −log10 of the molar value.

Tests used:
[1] = target: T1, Hypoxia-inducible factor 1-alpha (Homo sapiens, UniProt Q16665); test: Activation of HIF1 in human T47D cells; format: cell-based
[2] = target: T1, Hypoxia-inducible factor 1-alpha; test: Activation of HIF1 in human T47D cells after 30 mins by luciferase reporter gene assay; format: cell-based

T1 sequence (Q16665 whole entry): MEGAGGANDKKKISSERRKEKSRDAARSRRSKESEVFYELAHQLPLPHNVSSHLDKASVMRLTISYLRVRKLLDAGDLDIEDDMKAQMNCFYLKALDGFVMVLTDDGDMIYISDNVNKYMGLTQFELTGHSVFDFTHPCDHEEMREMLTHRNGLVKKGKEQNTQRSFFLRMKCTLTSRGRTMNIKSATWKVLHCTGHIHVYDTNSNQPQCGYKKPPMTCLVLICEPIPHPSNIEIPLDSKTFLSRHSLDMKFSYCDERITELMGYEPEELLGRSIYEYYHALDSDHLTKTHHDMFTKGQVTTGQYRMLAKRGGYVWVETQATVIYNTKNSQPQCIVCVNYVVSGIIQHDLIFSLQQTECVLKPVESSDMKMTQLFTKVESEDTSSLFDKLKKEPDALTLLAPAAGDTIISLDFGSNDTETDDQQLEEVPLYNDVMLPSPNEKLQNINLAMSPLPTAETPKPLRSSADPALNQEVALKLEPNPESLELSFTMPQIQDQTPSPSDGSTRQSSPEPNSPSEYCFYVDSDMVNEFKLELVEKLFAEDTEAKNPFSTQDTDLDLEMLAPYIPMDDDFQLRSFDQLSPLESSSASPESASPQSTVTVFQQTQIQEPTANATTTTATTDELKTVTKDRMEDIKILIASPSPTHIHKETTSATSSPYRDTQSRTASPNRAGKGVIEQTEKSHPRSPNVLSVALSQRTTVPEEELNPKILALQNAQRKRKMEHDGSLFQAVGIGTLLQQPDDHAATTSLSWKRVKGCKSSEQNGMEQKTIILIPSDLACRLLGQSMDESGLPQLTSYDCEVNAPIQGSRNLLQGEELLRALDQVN

Row | pIC50 [1] | pIC50 [2] | Compound
1 | 7.70 | – | COc1ccc([C@@H](O)[C@@H](C)Oc2ccc([C@H]3O[C@H](c4ccc(OC)c(OC)c4)[C@H](C)[C@H]3C)cc2OC)cc1OC
2 | – | 8.52 | COc1ccc([C@@H](O)[C@@H](C)Oc2ccc([C@@H]3CC[C@H](c4ccc(O[C@H](C)[C@H](O)c5ccc(OC)c(OC)c5)c(OC)c4)C3)cc2OC)cc1OC
